A word on the IC50: it is the concentration needed to halve the response being measured. Read a high IC50 as a need for much substance.

The text below walks through data of US4889871A, “Alkoxy-substituted dihydrobenzopyran-2-carboxylate derivatives” (G. D. Searle & Co., priority 1988, dated 1989).

The target of one test is T1, LTB4 receptor (Homo sapiens, UniProt Q15722).
T1 construct: Neutrophils were purified from venous blood of normal human donors; endogenous in cells; host or cells: purified human blood neutrophils (intact cells)
T1 sequence (Q15722 whole entry): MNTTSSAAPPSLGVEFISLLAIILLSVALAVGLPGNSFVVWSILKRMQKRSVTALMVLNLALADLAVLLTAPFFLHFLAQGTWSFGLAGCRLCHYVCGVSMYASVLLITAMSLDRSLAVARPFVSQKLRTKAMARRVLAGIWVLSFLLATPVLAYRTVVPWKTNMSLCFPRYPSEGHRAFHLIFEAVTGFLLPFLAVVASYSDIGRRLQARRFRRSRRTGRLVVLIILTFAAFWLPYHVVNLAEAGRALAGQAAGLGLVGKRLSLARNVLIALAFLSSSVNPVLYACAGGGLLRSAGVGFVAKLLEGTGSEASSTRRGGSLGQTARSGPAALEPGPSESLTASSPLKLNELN
Kind of test: LTB4 receptor binding assay ((3H) LTB4, human neutrophils). The note with it: Table 1. As to the method: Neutrophils (4-6×10^6) in 1 ml Hanks' balanced salt solution containing 10 mM HEPES buffer (HBSS), pH 7.4 and 30 μM nordihydroguaiaretic acid were incubated with 0.6×10^-9 M (^3 H) LTB4 in the presence or absence of test compounds. The incubation was carried out at 0° C. for 45 minutes and terminated by adding 5 ml of ice-cold HBSS followed by rapid filtration of incubation mixture under vacuum through GF/C glass fiber filters. The filters were further washed with 10 ml HBSS and radioactivity was determined. Specific binding was defined as the difference between total binding and nonspecific binding which was not displaced by 10^-7 M unlabeled LTB4. All data refer to specific binding.

The next test concerns the target T2, LTD4 receptor (Cavia porcellus, UniProt Q2NNR5).
T2 construct: from tissue; host or cells: lung membranes of male Hartley guinea pigs
T2 sequence (Q2NNR5 1-340): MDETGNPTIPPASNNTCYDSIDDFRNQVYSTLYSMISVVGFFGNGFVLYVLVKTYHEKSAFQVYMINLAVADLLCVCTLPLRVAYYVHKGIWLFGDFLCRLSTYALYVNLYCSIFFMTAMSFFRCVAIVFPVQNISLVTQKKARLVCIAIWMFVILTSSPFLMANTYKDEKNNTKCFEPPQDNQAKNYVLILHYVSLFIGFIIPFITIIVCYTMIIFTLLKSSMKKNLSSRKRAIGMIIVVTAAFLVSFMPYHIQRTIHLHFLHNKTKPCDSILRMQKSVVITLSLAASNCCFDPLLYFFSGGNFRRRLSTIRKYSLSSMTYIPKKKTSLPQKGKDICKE
Kind of test: LTD4 receptor binding assay using guinea pig lung membrane preparations. The note with it: for Receptor Binding LTD4 IC50: Table 1, results are from Table 3, 10^-5 M. As to the method: MEMBRANE PREPARATIONS: For each membrane preparation, 10-11 male Hartley guinea pigs, weighing less than 350 gm, were sacrificed by guillotine. The lungs were rapidly removed and placed in ice-cold 50 mM Trisma 7.0 buffer. After all the lungs were collected, each was probed free of bronchial tissue to at least the level of tertiary branching as observed through a dissecting lamp. The tissue was minced with a razor blade on a damp paper towel and placed into fresh ice-cold Trisma 7.0 buffer. When all the tissues had been processed, they were pooled, drained and weighed. Nine volumes of cold buffer were added and the tissue was polytroned for 6-10 second bursts with a 1 minute cool down period in an ice bath between each burst. The homogenate was filtered through a gauze pad and centrifuged at 1085× g for 15 minutes at 4° C. Supernatants were saved and centrifuged at 40,000× g for 20 minutes at 4° C. This time, supernatants were discarded and the pellets were resuspended in 30-35 ml fresh Trisma 7.0 buffer by 1-10 second bursts with the polytron. The materials were centrifuged again at 40,000× g. Supernatants were again discarded. Each pellet was resuspended again with approximately 7 ml buffer. All this material was pooled into a 100 ml polypropylene container and stirred with a magnetic stirring bar. The tubes were rinsed with small amounts of buffer and the rinse was added to the membrane preparation. The homogenized membranes were aliquoted into 1.5 ml microfuge tubes and frozen at -70° C. Three aliquots were submitted for protein determinations by FPB (fluorescamine protein binding) assay.
Unless otherwise indicated, all binding experiments were performed in a final incubation volume of 250 μl. […] Both materials were received in solutions. […] Both solutions were brought to appropriate assay concentrations by dilution in assay buffer consisting of 50 mM Trisma 7.4 with 5 mM L-cysteine and 20 mM CaCl2. Membranes were also diluted with this assay buffer. […] Diluent was added to all other appropriate control tubes. Incubations were conducted for 30 minutes at 25° C. in a shaking water bath. Termination of the reaction was achieved by pouring the incubate over 2.5 cm Whatman GF/C filters soaked in assay buffer and set over the ports of Millipore filter vacuum manifolds. Filters were rinsed with 4 ml ice cold assay buffer 3 times. The filters were removed, placed in 10 ml Aquasol scintillation cocktail and allowed to cool in the dark for 2 hours prior to counting. All samples were corrected for background and isotope decay before converting DPM determination to mass.
These values were logit-transformed and linear regression was performed on the dose-response data. All dose-response sets used to calculate IC50 values contained data from 3-6 compound concentrations. […] IC50 values were calculated from the regression equation for the line.
male guinea pig lung homogenate which was aliquoted and stored at
-70° C. The particular preparation used to test the compounds of
Protein concentrations in these assays were adjusted
to provide aproximately 0.1 nM receptor in the presence of lnM ^3
HLTD4. Incubation was conducted for 30 min.
at 24° C. and filtration methods were used to separate bound from
tested were intially solubilized in DMSO. Each compound was evaluated at
dose of 10 μM (10^-5 M) in triplicate in 2 separate assays. The

For another test, the target named is T3, guinea pig ileum (Cavia porcellus, UniProt Q2NNR5).
T3 construct: from tissue; host or cells: guinea pig ileum segments
T3 sequence (Q2NNR5 1-340): T2 sequence (Q2NNR5 1-340)
Kind of test: LTD4 antagonism in guinea pig ileum (contraction). The note with it: for Kb: read-out: Guinea Pig Ileum Contraction pA2 (converted). Here is the method:
Fresh segments of guinea pig ileum were suspended in 2 ml. tissue baths containing oxygenated modified Tyrodes solution. […] The ileum segments were washed and rested between exposures to agonist. Following this, the tissues were incubated with a single concentration of test compound and the agonist dose-response procedure was repeated. The dose ration is a measure of the antagonist's ability to shift the agonist dose-response curve to the right. It is derived as the concentration of agonist necessary to reach a given response level in the present (A') versus the absence (A) of antagonist. For example, if the test concentration of compound had no effect on the agonist-induced response (A'=A) the dose-ratio would approximate 1. […] One dose-ratio value is determined for each strip of ileum used to test antagonist. […] Schild analysis examines the linearity of the function described by the dose-ratios written as log (A'/A) versus antagonist concentration. If linearity is confirmed and the slope approximates -1, inhibition is considered to be competitive. […] This value is considered to be a measure of the affinity of the competitive antagonist.

The test system of test [1] is human neutrophils. Nature of the test: Modified Boyden chamber chemotaxis (LTB4, human neutrophils). Format: cell-based. The note with it: Neutrophil. As to the method: Human neutrophils were isolated from citrated peripheral blood using standard techniques of dextran sedimentation, followed by centrifugation on Histopaque® sterile solution (Sigma) or Ficoll-paque® (Pharmacia) and hypotonic lysis of erythrocytes. A final cell suspension of 3.4×10^6 neutrophils/ml of HEPES-buffered Hanks balanced salt solution (HBSS, pH 7.3) was added to the upper well (0.8 ml) of a modified Boyden chamber (blind well). The lower well (0.2 ml), separated by a polycarbonate membrane (Nuleopore Corp.), contained HBSS or 3×10^-8 M LTB4 in the presence of absence of test compound. Following a 90 minute incubation at 37° C. in 5% CO2 -95% air, cells from the lower well were lysed and nuclei counted in a Model S-Plus-IV Coulter Counter. Percent inhibition was calculated from cell counts corrected for random migration by subtracting the mean of the HBSS control.

Test [2] deals with human neutrophils. Kind of test: Human neutrophil degranulation assay (LTB4-induced, myeloperoxidase release). It counts as cell-based. The conditions noted are these: Table 1, LTB4 (5×10^-8 M). Here is the method:
Neutrophils were purified from venous blood of normal human donors using standard techniques of dextran sedimentation, centrifugation on Ficoll-paque® (Pharmacia) or Histopaque® sterile solution (Sigma) and hypotonic lysis of erythrocytes (Boyum, A., Isolation of Leukocytes From Human Blood: Further Observations. Scand. J. Lab. Clin. Invest., 21 (Suppl. 97): 31, 1968). The purity of isolated neutrophils was >95%.
Neutrophil degranulation was determined by measuring the release of myeloperoxidase activity into the incubation medium. Neutrophils (3×10^6) in 1 ml HBSS solution were preincubated with cytochalasin B (5 μg) at 37° C. for 5 minutes, followed by preincubation with test compounds for 7 minutes. Neutrophils were then incubated for 2 to 20 minutes with either LTB4 (5×10^-8 M) or the chemotactic peptide f-met-leu-phe (5×10^-6 M) to induce degranulation. Following incubation, samples were centrifuged and myeloperoxidase was extracted from the cell pellets by sonication in phosphate buffer containing 0.4% Triton X-100. Triton X-100 was also added to the supernatants to a concentration of 0.4%. The supernatants and the pellet - extracts were then assayed spectrophotometrically for myeloperoxidase activity by determining the rate of decomposition of H2 O2 with o-dianisidine as hydrogen donor as described by Renlund, et al. (Renlund, D. G., MacFarlane, J. L., Christensen, R. D., Lynch, R. E., and Rothstein, G., A Quantitative And Sensitive Method For Measurement Of Myeloperoxidase, Clinical Research 28:75A, 1980). Myeloperoxidase activity released into the supernatant was expressed as the percent of the average total activity (pellet plus supernatant).

Where [3] appears, read: read-out: LTD4 Receptor Binding Activity.
Setting [4] is: read-out: LTD4 Receptor Binding Percent Inhibition, Test #1, triplicate, 30 min, 24° C.
[5] abbreviates: read-out: LTD4 Receptor Binding Percent Inhibition, Test #2, triplicate, 30 min, 24° C.

Where two headings read alike, the source gives them in different places.

As for `CCCc1c(OCCCOc2ccc3c(=O)cc(C(=O)O)oc3c2CCC)ccc(C(C)=O)c1OC` [Example 7, 7-[3-(4-acetyl-3-methoxy-2-propylphenoxy)propoxy]-4-oxo-8-propyl-4H-1-benzopyran-2-carboxylic acid], the IC50 amounted to 500 nM on LTB4 receptor, 3.6 µM in the test on human neutrophils [1] and 3700 nM in the test on human neutrophils [2]. Further, the “Receptor Binding LTD4 IC50” value at LTD4 receptor was “Inactive”. In addition, the values for the inhibition at 10 µM on LTD4 receptor (setting [3]), on LTD4 receptor (setting [4]) and at LTD4 receptor (setting [5]) were less than 45%, 28.9% and 34.4%, respectively. Besides, the Kb on guinea pig ileum is 182 nM.

Consider `CCCc1c(OCCCCCOc2ccc(C(C)=O)c(OC)c2CCC)ccc2c1OC(C(=O)O)CC2` (stereo not drawn) [Example 15, 7-[[5-(4-acetyl-3-methoxy-2-propylphenoxy)pentyl]oxy]-3,4-dihydro-8-propyl-2H-1-benzopyran-2-carboxylic acid], for which the figures for the IC50 at LTB4 receptor, in the test with human neutrophils [1] and in the test with human neutrophils [2] were 500 nM, 6.6 µM and 1500 nM, respectively. At guinea pig ileum (Table 2, LTD4 agonist), the “Guinea Pig Ileum Contraction pA2” value is listed as “Inactive”.

Turning to `CCCc1c(OCCCOc2ccc(C(C)=O)c(OC)c2CCC)ccc2c1OC(CCC(=O)O)CC2` (stereo not drawn) [Example 20, 7-[3-(4-acetyl-3-methoxy-2-propylphenoxy)propoxy]-3,4-dihydro-8-propyl-2H-1-benzopyran-2-propanoic acid], the IC50 at LTB4 receptor was found to be 500 nM; in the test with human neutrophils [1], 1.7 µM; in the test on human neutrophils [2], 40 nM. Besides, at LTD4 receptor, the “Receptor Binding LTD4 IC50” value is “Inactive”. The values for the inhibition at 10 µM on LTD4 receptor (setting [3]), at LTD4 receptor (setting [4]) and at LTD4 receptor (setting [5]) were less than 45%, 13% and 23.5%, respectively. The Kb at guinea pig ileum is 316 nM.

As to `CCCc1c(OCCCOc2ccc3c(c2CCC)OC(C(=O)O)CC3)ccc(C(C)=O)c1O` (stereo not drawn) [reference compound], the Kb on guinea pig ileum was 25.1 nM.
